According to ChEMBL document CHEMBL3228042, “Stereochemical aspects of the metabolism of 5-(4'-fluorophenyl)-5-phenylhydantoin in the rat” (J Med Chem, 1979):

What was measured:
Format in all cases: ADME, organism-based
Conditions in all cases: in vivo
[1] = Drug metabolism in ip dosed Wistar rat assessed as (R)-(-)-5-(4'-fluorphenyl)-5-(4'-hydroxyphenyl)hydantoin level in urine up to 96 hrs by TLC analysis
[2] = Drug metabolism in ip dosed Wistar rat assessed as (R,S)-5-(3',4'-dimethoxyphenyl)-5-(4'-fluorophenyl)hydantoin level in urine up to 96 hrs by GC-MS analysis
[3] = Drug metabolism in ip dosed Wistar rat assessed as 5-(3',4'-dihydroxyphenyl)-5-(4'-fluorophenyl)hydantoin level in urine up to 96 hrs by GC-MS analysis
[4] = Drug metabolism in ip dosed Wistar rat assessed as […] level in urine up to 96 hrs by GC-MS analysis
[5] = Drug metabolism in ip dosed Wistar rat assessed as 3'-O-methyl derivative level in urine up to 96 hrs by GC-MS analysis
[6] = Drug metabolism in ip dosed Wistar rat assessed as 5-(4'-fluorophenyl)-5-(4'-hydroxyphenyl)hydantoin level in urine up to 96 hrs by GC-MS analysis

Measured: Drug metabolism

O=C1NC(=O)C(c2ccc(O)cc2)(c2ccc(F)cc2)N1 (racemic)
metabolite_detected: [1]

O=C1[N-]C(=O)C(c2ccccc2)(c2ccc(F)cc2)N1.[Na+] (racemic)
not listed: [1]
metabolite_detected: all other assays above

O=C1NC(=O)C(c2ccccc2)(c2ccc(F)cc2)N1 (stereo unspecified)
not listed: [1]
metabolite_detected: all other assays above
